From patent US5641751A, “Tumor necrosis factor inhibitors” (Centocor, Inc., priority 1995, dated 1997)
Read-outs that look alike come from different tables or passages of the source. Ends that are not written are not given here.

Target: T1, human TNFα (Homo sapiens, UniProt P01375)
T1 construct: purchased Biosource, Camarillo, Calif
Assay: p55 Receptor/IgG fusion protein binding assay (inhibition of TNFα capture by p55-Ig coated plate)
Conditions: inhibition of binding of TNFα to p55TNFr-IgG chimeric construct
Experimental: This assay was designed to identify peptides which bind to human TNFα and thereby prevent the capture of the TNFα by a microtiter plate coated with p55-Ig fusion protein. A constant concentration of human TNFα is preincubated with the test peptide and then incubated on the p55-Ig coated microtiter wells. Bound TNFα is detected using a specific antisera and an alkaline phosphatase-conjugated probe.
A 96-well, U-bottom polyvinylchloride microtiter plate was coated with 50 μl/well of p55-Ig fusion protein at 5 μg/ml in 0.01M sodium phosphate, 0.15M sodium chloride (PBS) by incubation overnight at 4° C. or 2 hours at 37° C. The fusion protein, which consists of a p55 TNF receptor protein portion and an IgG portion, can be produced as disclosed in U.S. application Ser. No. 08/010,406 filed Jan. 29, 1993 which is incorporated herein by reference. The plate was washed three times with 0.05% Tween-20 in PBS, then blocked, by adding 150 μl/well of assay buffer (10 mM N-2-hydroxyethylpiperazine-N'-[…] (HEPES) pH 7.2, containing 0.1% porcine gelatin, 0.1% Tween-80, and 0.01% sodium azide) and continuing incubation for 1 hour at 37° C. or at 4° C. for 1-7 days.
Lyophilized peptides to be tested were weighed in tared 12×75 mm polystyrene tubes and reconstituted to a concentration of 1.2 mM with assay buffer. Each suspension was sonicated in a water bath for 1-5 minutes and vortexed 15-30 seconds to disperse large particles. Serial dilutions of each peptide suspension were prepared using assay buffer in a 96-well polystyrene microtiter plate. Additional wells received Fab fragment of the mouse/human monoclonal anti-human TNFα antibody cA2 (positive control) or assay buffer (negative control). […] The polystyrene dilution plate was then sealed and incubated 1 hour at room temperature on an orbital mixer set at moderate speed.
Following the sample preincubation, blocker was discarded from the p55-Ig coated plate and blotted dry. Aliquots (50 μl) of each peptide or control were transferred into duplicate wells on the p55-Ig coated plate which was then sealed and incubated 1 hour at 37° C. Duplicate wells containing only assay buffer were included as a plate blank. After incubation the p55-Ig plate was washed three times with 0.05% Tween-20 in PBS.
To detect TNFα captured by the p55-Ig plate, all wells were incubated in succession with polyclonal rabbit anti-human TNFα (Genzyme, Boston, Mass.; 1:500 in assay buffer, 50 μl/well), biotinylated goat anti-rabbit Ig (H&L) (Vector Laboratories, Burlingame, Calif.; 1 μg/ml in assay buffer, 50 μl/well) and streptavidin-alkaline phosphatase conjugate (Pierce, Rockford, Ill.; 1 μg/ml in assay buffer, 50 μl/well). All incubations were for 1 hour at 37° C. and after each incubation the plate was washed three times with 0.05% Tween-20 in PBS. Fifty microliters of alkaline phosphatase substrate solution (alkaline buffer (Sigma, St. Louis, Mo.) diluted 1:500 in deionized water plus one 5 mg tablet of p-nitrophenyl phosphate (Sigma, St. Louis, Mo.) per 5 ml of diluted buffer) was added to all wells and incubation continued for 20 minutes at room temperature. Color development was stopped by adding to all wells 50 μl of 3N sodium hydroxide. The optical density (OD) at 405 nm was measured on a microtiter plate reader (Molecular Devices Vmax plate reader), with the plate blank wells subtracted as background. The activity of each peptide was then expressed as the percent inhibition of TNFα capture by the p55-Ig plate, relative to the amount of TNFα captured in wells containing only assay buffer (negative control), as follows:
% inhibition=100-((mean OD peptide/mean OD negative control)×100).
The inhibition of binding of TNFα to p55TNFr-IgG chimeric construct was performed as described above using several embodiments of the invention. The peptides were tested to determine the concentration necessary to inhibit TNFα by 50% (IC50) relative to TNFα activity in the absence of the peptide.

[1] = TNFα 25 ng/ml, read-out: IC50 (concentration necessary to inhibit TNFα by 50%)
[2] = highest value observed, read-out: maximum IC50 observed
[3] = lowest value observed, read-out: minimum IC50 observed

T1 sequence (P01375 77-233 limits assumed): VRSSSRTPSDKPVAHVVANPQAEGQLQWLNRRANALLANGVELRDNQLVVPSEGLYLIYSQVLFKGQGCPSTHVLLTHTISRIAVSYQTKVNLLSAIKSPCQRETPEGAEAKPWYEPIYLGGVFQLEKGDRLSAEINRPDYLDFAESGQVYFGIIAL

Substance	IC50 [1]	IC50 [2]	IC50 [3]
Ac-LLIYYVSNRYTGV-NH2 [SEQ ID NO:18]	307 µM	829 µM	29 µM
Ac-SASSSVSFMYW-NH2 [SEQ ID NO:2]	29 µM	60 µM	9 µM
SASSSVSFMYA-NH2 [SEQ ID NO:4]	80 µM	87 µM	74 µM
Ac-VIWRGGSTDYNAAFMS-NH2 [SEQ ID NO:20]	86 µM	150 µM	37 µM
Ac-LLIYYVSNRYTG-NH2 [SEQ ID NO:17]	155 µM	210 µM	51 µM

Substances with a lower IC50 [1], results first:

IC50 [1]	IC50 [2]	IC50 [3]	Substance
23 µM	33 µM	10 µM	SEQ ID NO:3: SEQ ID NO:3 in which the carboxy terminal tryptophan is tryptophan amide; comprises a fragment of SEQ ID NO:2 (SAASSVSFMYW-NH2)
20 µM	91 µM	8 µM	Ac-NINPNNGGTIYNQFKFGKG-NH2 [SEQ ID NO:1]
